Data: publication PMC8922279, “Identification of β-Lactams Active against Mycobacterium tuberculosis by a Consortium of Pharmaceutical Companies and Academic Institutions” (ACS Infectious Diseases, 2022)
In brackets after ≈: the same amount, converted by molar mass.

What was measured:
[1] = Metabolic stability, human; assay type: in vitro ADME
Experimental: (§1) Metabolic stability and induction of human hepatocytes were performed as previously described.[71]

Mtb H37Rv = assay: MIC90 against replicating (R) Mtb H37Rv, with or without clavulanate; assay type: cell-based, Mycobacterium tuberculosis; details: Table S4
in vitro [2] = details: male, CD-1, mouse, plasma, Plasma stability % Remaining
[3] = female, 129sv DHP-1 knockout, mouse, in vivo
CYP3A5 = assay type: in vitro ADME; details: human, hepatocytes, 3 µM
Experimental: as §1

CYP2B6 = assay type: in vitro ADME; details: human, hepatocytes, 3 µM
Experimental: as §1

CYP1A2 = assay type: in vitro ADME; details: human, hepatocytes, 3 µM
Experimental: as §1

physchem [4] = details: simulated gi fluid, pH 1.2
physchem [5] = assay type: physicochemical; details: thermodynamic from solid
Experimental: Compounds were prepared at 1 mg/mL and left overnight at room temperature with stirring in phosphate buffer, 50 mM, at pH 7.4 or in 0.1 N HCl at pH 1. After separation of the soluble fraction by centrifugation, samples were filtered onto a polytetrafluoroethylene […] filter (Millipore) and then analyzed by HPLC.

CYP3A4 = CYP3A4 (Homo sapiens, UniProt P08684); assay: CYP3A4 inhibition
wild-type Mtb H37Rv = assay type: in vivo, 129sv DHP-1 knockout mice
in vitro [6] = details: SD, rat, plasma, pH 7.4, % bound to plasma
plasma proteins = details: 4 h, 2 μM, pH 7.4
in vitro [7] = details: cynomolgus monkey, plasma, pH 7.4
in vitro [8] = details: CD-1, mouse, plasma, pH 7.4, % bound to plasma
WT Mtb H37Rv = assay: Colony-forming unit (CFU) assay, replicating WT Mtb H37Rv; assay type: cell-based, Mycobacterium tuberculosis
in vivo = details: female, CD-1, mouse

CYP3A4, sequence (P08684 whole entry, species assumed): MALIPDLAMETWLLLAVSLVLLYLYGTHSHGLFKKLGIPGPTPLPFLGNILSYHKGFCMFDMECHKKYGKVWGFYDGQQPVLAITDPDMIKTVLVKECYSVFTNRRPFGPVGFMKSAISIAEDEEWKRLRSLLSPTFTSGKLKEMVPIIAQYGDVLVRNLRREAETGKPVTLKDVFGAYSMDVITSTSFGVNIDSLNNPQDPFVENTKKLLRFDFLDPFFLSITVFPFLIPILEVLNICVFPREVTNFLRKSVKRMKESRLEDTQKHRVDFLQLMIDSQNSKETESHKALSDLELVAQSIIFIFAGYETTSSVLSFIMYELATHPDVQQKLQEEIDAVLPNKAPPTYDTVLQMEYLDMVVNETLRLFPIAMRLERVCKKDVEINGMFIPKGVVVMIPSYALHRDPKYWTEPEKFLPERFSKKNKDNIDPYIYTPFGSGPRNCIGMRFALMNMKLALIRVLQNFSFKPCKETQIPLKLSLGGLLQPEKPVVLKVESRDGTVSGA

O=C(Cc1ccc(C2=NCCN2)cc1)N[C@@H]1C(=O)N2C(C(=O)O)=C(CSc3nncs3)CS[C@H]12 [TBBL-0000316]
metabolic stability [1]: 5.4 μL/min/mg protein | metabolic stability 1/2 life [1]: 256 min | Mtb H37Rv R + CLAV (MIC90) (Mtb H37Rv; clavulanate 4 μg/mL): 0.5 µM | Mtb H37Rv R (MIC90) (Mtb H37Rv; no clavulanate): 44.7 µM | remaining at 2 h, 2 μM (in vitro [2]): 88.5% | Tlast [3]: 6.0 h | induction of expression of CYP3A5 (CYP3A5): < 2 fold | induction of expression of CYP2B6 (CYP2B6): < 2 fold | induction of expression of CYP1A2 (CYP1A2): < 2 fold | remaining at 1 h, 10 μM (physchem [4]): 83.7% | remaining at 24 h, 10 μM (physchem [4]): 0.45% | solubility (physchem [5]; pH 1, simulated gastric fluid): 402 µg/mL (≈ 778 µM) | solubility (physchem [5]; pH 7.4, aqueous buffer): > 1000 µg/mL | IC50 (CYP3A4): > 25 µM | Log10 CFU per mouse (lungs), Mean (wild-type Mtb H37Rv; 50 mg/kg sc bid + clavulanate 100 mg/kg po bid, days 9-15, lungs day 16, untreated day 16 mean 9.1): 8.2 Log10 CFU | reduction of lung CFU compared to untreated control mice (wild-type Mtb H37Rv; mouse, in vivo): 0.9 log10 | fraction unbound at 4 h, 2 μM (in vitro [6]): 0.378 | % bound to plasma, CD-1 Mouse (plasma proteins): 18% | fraction unbound at 4 h, 2 μM (in vitro [7]): 0.335 | fraction unbound at 4 h, 2 μM (in vitro [8]): 0.817 | reduction in CFU (WT Mtb H37Rv; daily dosing for 5 days with 4 μg/mL clavulanate, at ≥1 μM): 3–4 log10 | reduction in CFU (WT Mtb H37Rv; single dose at 10 μM, one-week exposure, 4 μg/mL clavulanate): 3.5 log10 | AUC(0-t) (in vivo; iv, 5 mg/kg): 37100 ng·h/mL | Vd (in vivo; iv, 5 mg/kg): 0.11 L/kg | clearance (in vivo; iv, 5 mg/kg): 2.25 mL/min/kg | half-life (in vivo; iv, 5 mg/kg): 34.8 min | k el (in vivo; iv, 5 mg/kg): 0.000333 s⁻¹ | AUC(0-t) (in vivo; po, 25 mg/kg): 542 ng·h/mL | bioavailability (in vivo; po, 25 mg/kg): 0.3%
